# Results published in patent US8952024B2, “Herbicidal pyrimidone derivatives” (E I du Pont de Nemours and Company, priority 2009, dated 2015).
# Assays:
# Assay type in all cases: in vivo
# [1] = system: canarygrass (Phalaris minor); test: Test B postemergence plant response; settings: for Canarygrass plant response rating (0 to 100 scale): 62 g ai/ha, 0 is no effect, 13 to 15 days
# Summary of the method: (§1)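 Plants grown in peat/vermiculite medium were sprayed postemergence at 2–18 cm height (1- to 4-leaf stage). After 13–15 days in the greenhouse, response was rated visually against untreated controls on a 0–100 scale (0 no effect, 100 complete control).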
# [2] = system: winter barley (Hordeum vulgare); test: Test B postemergence plant response; settings: for Barley plant response rating (0 to 100 scale): 62 g ai/ha, 0 is no effect, 13 to 15 days
# Summary of the method: as §1
# [3] = system: chickweed (Stellaria media); test: Test B postemergence plant response; settings: for Chickweed plant response rating (0 to 100 scale): 62 g ai/ha, 0 is no effect, 13 to 15 days
# Summary of the method: as §1
# [4] = system: windgrass (Apera spica-venti); test: Test B postemergence plant response; settings: for Windgrass plant response rating (0 to 100 scale): 62 g ai/ha, 0 is no effect, 13 to 15 days
# Summary of the method: as §1
# [5] = system: velvetleaf (Abutilon theophrasti); test: Test B pre-/postemergence plant response; settings: for Velvetleaf plant response rating (0 to 100 scale): 62 g ai/ha, 0 is no effect, 13 to 15 days
# Summary of the method: (§2)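 Pre-em in loam/sand; post-em at 1–4 leaf (2–18 cm) in peat mix. Solvent + surfactant formulation. Greenhouse 13–15 d; visual % control vs untreated, 0–100.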
# [6] = system: lambsquarters (Chenopodium album); test: Test B pre-/postemergence plant response; settings: for Lambsquarters plant response rating (0 to 100 scale): 62 g ai/ha, 0 is no effect, 13 to 15 days
# Summary of the method: as §2
# [7] = system: blackgrass (Alopecurus myosuroides); test: Test B pre-/postemergence plant response; settings: for Blackgrass plant response rating (0 to 100 scale): 62 g ai/ha, 0 is no effect, 13 to 15 days
# Summary of the method: as §2
# [8] = system: johnsongrass (Sorghum halepense); test: Test B pre-/postemergence plant response; settings: for Johnsongrass plant response rating (0 to 100 scale): 62 g ai/ha, 0 is no effect, 13 to 15 days
# Summary of the method: as §2
# [9] = system: Italian ryegrass (Lolium multiflorum); test: Test B pre-/postemergence plant response; settings: for Ryegrass, Italian plant response rating (0 to 100 scale): 62 g ai/ha, 0 is no effect, 13 to 15 days
# Summary of the method: as §2
# [10] = system: woolly cupgrass (Eriochloa villosa); test: Test B pre-/postemergence plant response; settings: for Cupgrass, Woolly plant response rating (0 to 100 scale): 62 g ai/ha, 0 is no effect, 13 to 15 days
# Summary of the method: as §2
# [11] = system: ragweed (common ragweed, Ambrosia elatior); test: Test B pre-/postemergence plant response; settings: for Ragweed plant response rating (0 to 100 scale): 62 g ai/ha, 0 is no effect, 13 to 15 days
# Summary of the method: as §2
# [12] = system: bermudagrass (Cynodon dactylon); test: Test B pre-/postemergence plant response; settings: for Bermudagrass plant response rating (0 to 100 scale): 62 g ai/ha, 0 is no effect, 13 to 15 days
# Summary of the method: as §2
# [13] = system: large crabgrass (Digitaria sanguinalis); test: Test B pre-/postemergence plant response; settings: for Crabgrass, Large plant response rating (0 to 100 scale): 62 g ai/ha, 0 is no effect, 13 to 15 days
# Summary of the method: as §2
# [14] = system: yellow nutsedge (Cyperus esculentus); test: Test B pre-/postemergence plant response; settings: for Nutsedge, Yellow plant response rating (0 to 100 scale): 62 g ai/ha, 0 is no effect, 13 to 15 days
# Summary of the method: as §2
# corn (Zea mays) = test: Test B pre-/postemergence plant response; settings: for Corn plant response rating (0 to 100 scale): 62 g ai/ha, 0 is no effect, 13 to 15 days
# Summary of the method: as §2
# [15] = system: Surinam grass (Brachiaria decumbens); test: Test B pre-/postemergence plant response; settings: for Surinam Grass plant response rating (0 to 100 scale): 62 g ai/ha, 0 is no effect, 13 to 15 days
# Summary of the method: as §2
# soybean (Glycine max) = test: Test B pre-/postemergence plant response; settings: for Soybean plant response rating (0 to 100 scale): 62 g ai/ha, 0 is no effect, 13 to 15 days
# Summary of the method: as §2
# wild oat (Avena fatua) = test: Test B pre-/postemergence plant response; settings: for Oat, Wild plant response rating (0 to 100 scale): 62 g ai/ha, 0 is no effect, 13 to 15 days
# Summary of the method: as §2
# [16] = 31 g ai/ha, postemergence, scale 0 to 100, 0 is no effect, 100 is complete control
# [17] = postemergence, 100 is complete control
# [18] = Postemergence, 125 g ai/ha, visual rating after 13 to 15 days, scale 0 (no effect) to 100 (complete control)
# [19] = Postemergence, 250 g ai/ha, scale 0 to 100 (0 no effect, 100 complete control)
compound,measurement,setting,value
O=C1CCCC(O)=C1C(=O)c1cnc(C2CCCC2)n(-c2ccccc2)c1=O [Compound 92],"Plant response rating, Canarygrass",[1]; [16],0
same,Canarygrass plant response rating (0 to 100 scale),[1]; [17],0
same,"Plant response rating, Canarygrass",[1]; [18],0
same,"Plant response rating, Canarygrass",[1]; [19],0
same,"Plant response rating, Barley",[2]; [16],0
same,Barley plant response rating (0 to 100 scale),[2]; [17],0
same,"Plant response rating, Barley",[2]; [18],0
same,"Plant response rating, Barley",[2]; [19],0
same,"Plant response rating, Chickweed",[3]; [16],90
same,Chickweed plant response rating (0 to 100 scale),[3]; [17],95
same,"Plant response rating, Chickweed",[3]; [18],98
same,"Plant response rating, Chickweed",[3]; [19],100
same,"Plant response rating, Windgrass",[4]; [16],0
same,Windgrass plant response rating (0 to 100 scale),[4]; [17],50
same,"Plant response rating, Windgrass",[4]; [19],90
same,"Plant response rating, Velvetleaf",[5]; [16],95
same,Velvetleaf plant response rating (0 to 100 scale),[5]; [17],100
same,"Plant response rating, Velvetleaf",[5]; [19],100
same,"Plant response rating, Lambsquarters",[6]; [16],90
same,Lambsquarters plant response rating (0 to 100 scale),[6]; [17],98
same,"Plant response rating, Lambsquarters",[6]; [19],100
same,"Plant response rating, Blackgrass",[7]; [16],0
same,Blackgrass plant response rating (0 to 100 scale),[7]; [17],0
same,"Plant response rating, Blackgrass",[7]; [18],5
same,"Plant response rating, Blackgrass",[7]; [19],5
same,"Plant response rating, Johnsongrass",[8]; [16],20
same,Johnsongrass plant response rating (0 to 100 scale),[8]; [17],85
same,"Plant response rating, Johnsongrass",[8]; [19],100
same,"Plant response rating, Ryegrass, Italian",[9]; [16],0
same,"Ryegrass, Italian plant response rating (0 to 100 scale)",[9]; [17],0
same,"Plant response rating, Ryegrass, Italian",[9]; [19],30
same,"Plant response rating, Cupgrass, Woolly",[10]; [16],10
same,"Cupgrass, Woolly plant response rating (0 to 100 scale)",[10]; [17],25
same,"Plant response rating, Cupgrass, Woolly",[10]; [18],65
same,"Plant response rating, Cupgrass, Woolly",[10]; [19],70
same,"Plant response rating, Ragweed",[11]; [16],40
same,Ragweed plant response rating (0 to 100 scale),[11]; [17],60
same,"Plant response rating, Ragweed",[11]; [19],75
same,"Plant response rating, Bermudagrass",[12]; [16],20
same,Bermudagrass plant response rating (0 to 100 scale),[12]; [17],80
same,"Plant response rating, Bermudagrass",[12]; [18],85
same,"Plant response rating, Bermudagrass",[12]; [19],85
same,"Plant response rating, Crabgrass, Large",[13]; [16],80
same,"Crabgrass, Large plant response rating (0 to 100 scale)",[13]; [17],90
same,"Plant response rating, Crabgrass, Large",[13]; [18],98
same,"Plant response rating, Crabgrass, Large",[13]; [19],100
same,"Plant response rating, Nutsedge, Yellow",[14]; [16],45
same,"Nutsedge, Yellow plant response rating (0 to 100 scale)",[14]; [17],65
same,"Plant response rating, Nutsedge, Yellow",[14]; [19],75
same,"Plant response rating, Corn",corn (Zea mays); [16],20
same,Corn plant response rating (0 to 100 scale),corn (Zea mays); [17],35
same,"Plant response rating, Corn",corn (Zea mays); [18],45
same,"Plant response rating, Corn",corn (Zea mays); [19],60
same,"Plant response rating, Surinam Grass",[15]; [16],25
same,Surinam Grass plant response rating (0 to 100 scale),[15]; [17],65
same,"Plant response rating, Surinam Grass",[15]; [19],75
same,"Plant response rating, Soybean",soybean (Glycine max); [16],90
same,Soybean plant response rating (0 to 100 scale),soybean (Glycine max); [17],98
same,"Plant response rating, Soybean",soybean (Glycine max); [19],98
same,"Plant response rating, Oat, Wild",wild oat (Avena fatua); [16],0
same,"Oat, Wild plant response rating (0 to 100 scale)",wild oat (Avena fatua); [17],5
same,"Plant response rating, Oat, Wild",wild oat (Avena fatua); [19],10
CCCn1c(-c2ccsc2)ncc(C(=O)C2=C(O)CCCC2=O)c1=O [Compound 93],"Plant response rating, Canarygrass",[1]; [16],0
same,Canarygrass plant response rating (0 to 100 scale),[1]; [17],0
same,"Plant response rating, Canarygrass",[1]; [18],5
same,"Plant response rating, Canarygrass",[1]; [19],10
same,"Plant response rating, Barley",[2]; [16],0
same,Barley plant response rating (0 to 100 scale),[2]; [17],0
same,"Plant response rating, Barley",[2]; [18],5
same,"Plant response rating, Barley",[2]; [19],5
same,"Plant response rating, Chickweed",[3]; [16],80
same,Chickweed plant response rating (0 to 100 scale),[3]; [17],80
same,"Plant response rating, Chickweed",[3]; [18],95
same,"Plant response rating, Chickweed",[3]; [19],98
same,"Plant response rating, Windgrass",[4]; [16],5
same,Windgrass plant response rating (0 to 100 scale),[4]; [17],10
same,"Plant response rating, Windgrass",[4]; [19],55
same,"Plant response rating, Velvetleaf",[5]; [16],85
same,Velvetleaf plant response rating (0 to 100 scale),[5]; [17],90
same,"Plant response rating, Velvetleaf",[5]; [19],98
same,"Plant response rating, Lambsquarters",[6]; [16],85
same,Lambsquarters plant response rating (0 to 100 scale),[6]; [17],95
same,"Plant response rating, Lambsquarters",[6]; [19],98
same,"Plant response rating, Blackgrass",[7]; [16],0
same,Blackgrass plant response rating (0 to 100 scale),[7]; [17],5
same,"Plant response rating, Blackgrass",[7]; [18],30
same,"Plant response rating, Blackgrass",[7]; [19],30
same,"Plant response rating, Johnsongrass",[8]; [16],10
same,Johnsongrass plant response rating (0 to 100 scale),[8]; [17],10
same,"Plant response rating, Johnsongrass",[8]; [19],70
same,"Plant response rating, Ryegrass, Italian",[9]; [16],0
same,"Ryegrass, Italian plant response rating (0 to 100 scale)",[9]; [17],0
same,"Plant response rating, Ryegrass, Italian",[9]; [19],0
same,"Plant response rating, Cupgrass, Woolly",[10]; [16],45
same,"Cupgrass, Woolly plant response rating (0 to 100 scale)",[10]; [17],45
same,"Plant response rating, Cupgrass, Woolly",[10]; [18],65
same,"Plant response rating, Cupgrass, Woolly",[10]; [19],70
same,"Plant response rating, Ragweed",[11]; [16],65
same,Ragweed plant response rating (0 to 100 scale),[11]; [17],75
same,"Plant response rating, Ragweed",[11]; [19],98
same,"Plant response rating, Bermudagrass",[12]; [16],60
same,Bermudagrass plant response rating (0 to 100 scale),[12]; [17],75
same,"Plant response rating, Bermudagrass",[12]; [18],85
same,"Plant response rating, Bermudagrass",[12]; [19],85
same,"Plant response rating, Crabgrass, Large",[13]; [16],70
same,"Crabgrass, Large plant response rating (0 to 100 scale)",[13]; [17],80
same,"Plant response rating, Crabgrass, Large",[13]; [18],80
same,"Plant response rating, Crabgrass, Large",[13]; [19],90
same,"Plant response rating, Nutsedge, Yellow",[14]; [16],45
same,"Nutsedge, Yellow plant response rating (0 to 100 scale)",[14]; [17],60
same,"Plant response rating, Nutsedge, Yellow",[14]; [19],70
same,"Plant response rating, Corn",corn (Zea mays); [16],0
same,Corn plant response rating (0 to 100 scale),corn (Zea mays); [17],45
same,"Plant response rating, Corn",corn (Zea mays); [18],50
same,"Plant response rating, Corn",corn (Zea mays); [19],60
same,"Plant response rating, Surinam Grass",[15]; [16],50
same,Surinam Grass plant response rating (0 to 100 scale),[15]; [17],65
same,"Plant response rating, Surinam Grass",[15]; [19],70
same,"Plant response rating, Soybean",soybean (Glycine max); [16],55
same,Soybean plant response rating (0 to 100 scale),soybean (Glycine max); [17],80
same,"Plant response rating, Soybean",soybean (Glycine max); [19],98
same,"Plant response rating, Oat, Wild",wild oat (Avena fatua); [16],0
same,"Oat, Wild plant response rating (0 to 100 scale)",wild oat (Avena fatua); [17],0
same,"Plant response rating, Oat, Wild",wild oat (Avena fatua); [19],5
